Source: PMC5928890 (Theranostics, 2018)
pIC50: −log10 of the molar value.

Target: Aβ(1-42) (Homo sapiens, UniProt P05067)
Assay: Aggregation inhibition by paper-based ECL assay with [Ru
Format: biochemical

Aβ(1-42), sequence (P05067 672-713): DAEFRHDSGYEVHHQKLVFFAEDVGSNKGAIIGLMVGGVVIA

- pIC50: 5.97
SMILES: Nc1c(/N=N/c2ccc(-c3ccc(/N=N/c4cc(S(=O)(=O)O)c5ccccc5c4N)cc3)cc2)cc(S(=O)(=O)O)c2ccccc12 [CR, Congo red]
